Reference: patent publication US20140349944A1, “CHAPERONE-BASED INTEGRIN INHIBITORS FOR THE TREATMENT OF CANCER AND INFLAMMATORY DISEASES” (priority 2013, published 2014)

Test system: gp96 and αL-HA in RAW264.7 cells
Assay: Tunicamycin treatment of RAW264.7 cells, IP and immunoblot
Assay type: cell-based
Details: 5 μg/ml Tunicamycin

With Tunicamycin the “binding of immature ER αL-HA to gp96” value (12 hours (FIG. 1E)) was “reduction in binding to gp96”, the “dimerization of matured cell surface αL-HA with β2-myc” value (12 hours (FIG. 1E)) was “no change” and the gp96 expression (12 hours, via unfolded protein response) was “upregulation”.
